The results in this text go back to patent publication US20220323406A1, “METHODS AND COMPOSITIONS FOR DIFFERENTIATING STEM CELLS” (Massachusetts Institute of Technology, priority 2019, published 2022).

The subject of experiment [1] is ENR+CD organoids (ISC to Paneth cell differentiation). Nature of the experiment: Primary screen: CCh-stimulated lysozyme secretion LYZ.S, 2.5-D 384-well ENR+CD organoid differentiation. Format: cell-based, mouse. The conditions noted are these: primary screen. The text has this:
(§1) High-throughput screening.

For experiment [2] the test system is unchanged. Nature of the experiment: Primary screen: basal (non-stimulated) lysozyme secretion LYZ.NS, 2.5-D 384-well ENR+CD organoid differentiation. The class given is cell-based, mouse.
Text: as §1

For another experiment, the system named is ENR+CD organoids. Nature of the experiment: Primary screen: ATP (CellTiter-Glo 3D, CTG) cell number/viability, 2.5-D 384-well ENR+CD organoids.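 Note: compounds given at plating and again on day 3 over a 6-day differentiation from ENR+CV stem-cell-enriched precursors, ATP measured on day 6, plate median as control.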
[3] abbreviates: primary screen, dose 0.08 uM, FC relative to plate median.
Setting [4] is: primary screen, dose 0.08 uM, standard z score.
Where [5] appears, read: primary screen, dose 0.40 uM, FC relative to plate median.
[6] abbreviates: primary screen, dose 0.40 uM, standard z score.
Setting [7] is: primary screen, dose 2.00 uM, FC relative to plate median.
Setting [8] is: primary screen, dose 2.00 uM, standard z score.
[9] abbreviates: primary screen, dose 10.00 uM, FC relative to plate median.
[10] abbreviates: primary screen, dose 10.00 uM, standard z score.
Setting [11] is: primary screen, standard z score, dose 0.08 uM.
Where [12] appears, read: primary screen, standard z score, dose 0.40 uM.
[13] abbreviates: primary screen, standard z score, dose 2.00 uM.
Where [14] appears, read: primary screen, standard z score, dose 10.00 uM.

On to `O=C(Nc1ccccc1)c1cc([N+](=O)[O-])ccc1Cl` [GW9662], for which the “Dose.FC.LYZ.S (log2 fold change)” value in experiment [1] (dose 0.08 uM) was 0.036; in experiment [1] (dose 0.40 uM) it was 0.080; in experiment [1] (dose 2.00 uM) it was 0.093; in experiment [1] (dose 10.00 uM) it was 0.020. Further, the “Dose.FC.LYZ.NS (log2 fold change)” value in experiment [2] (primary screen, dose 0.08 uM) amounted to 0.035; in experiment [2] (primary screen, dose 0.40 uM) it was 0.098; in experiment [2] (primary screen, dose 2.00 uM), 0.046; in experiment [2] (primary screen, dose 10.00 uM) it was 0.030. The “Z.LYZ.NS (standard z score)” value was 0.305 in experiment [2] (primary screen, dose 0.08 uM); 0.852 in experiment [2] (primary screen, dose 0.40 uM); 0.400 in experiment [2] (primary screen, dose 2.00 uM); 0.264 in experiment [2] (primary screen, dose 10.00 uM). Besides, the “Dose.FC.CTG (log2 fold change)” value with ENR+CD organoids (primary screen, dose 0.08 uM) is 0.115; in the experiment on ENR+CD organoids (primary screen, dose 0.40 uM), 0.041; in the experiment with ENR+CD organoids (primary screen, dose 2.00 uM), 0.212; with ENR+CD organoids (primary screen, dose 10.00 uM) it was 0.133. The “Z.CTG (standard z score)” value with ENR+CD organoids (primary screen, dose 0.08 uM) turned out to be 0.274; with ENR+CD organoids (primary screen, dose 0.40 uM), 0.098; with ENR+CD organoids (primary screen, dose 2.00 uM), 0.508; in the experiment on ENR+CD organoids (primary screen, dose 10.00 uM) it was 0.318.

With `Cc1ccc(S(=O)(=O)Cc2nc(-c3ccc(C(=O)NCc4cccnc4)cc3)oc2C)cc1` [STF-118804], the Dose.FC.LYZ.S in experiment [1] (dose 0.08 uM, FC relative to plate median) is on record as −0.257 log2 fold change; in experiment [1] (dose 0.40 uM, FC relative to plate median) it was −0.212 log2 fold change; in experiment [1] (dose 2.00 uM, FC relative to plate median), −0.271 log2 fold change; in experiment [1] (dose 10.00 uM, FC relative to plate median) it was −0.300 log2 fold change. The Dose.FC.LYZ.NS in experiment [2] (setting [3]) is listed as −0.155 log2 fold change; in experiment [2] (setting [5]), −0.210 log2 fold change; in experiment [2] (setting [7]), −0.172 log2 fold change; in experiment [2] (setting [9]), −0.177 log2 fold change. Besides, the Z.LYZ.NS in experiment [2] (setting [4]) was −1.349; in experiment [2] (setting [6]), −1.824; in experiment [2] (setting [8]), −1.502; in experiment [2] (setting [10]) it was −1.541. In addition, the Dose.FC.CTG in the experiment with ENR+CD organoids (setting [3]) is on record as −0.151 log2 fold change; with ENR+CD organoids (setting [5]), −1.401 log2 fold change; in the experiment with ENR+CD organoids (setting [7]), −0.916 log2 fold change; in the experiment on ENR+CD organoids (setting [9]), −1.338 log2 fold change. The Z.CTG with ENR+CD organoids (setting [4]) was −0.360; in the experiment with ENR+CD organoids (setting [6]), −3.346; in the experiment with ENR+CD organoids (setting [8]) it was −2.189; with ENR+CD organoids (setting [10]), −3.195.

Regarding `Cc1c(C(=O)Nc2ccc(N3C[C@@H](C)O[C@@H](C)C3)nc2)cccc1-c1ccc(OC(F)(F)F)cc1` [LDE225 (NVP-LDE225, Erismodegib)], the “Dose.FC.LYZ.S (log2 fold change)” value is reported as 0.095 in experiment [1] (dose 0.08 uM), 0.074 in experiment [1] (dose 0.40 uM), 0.002 in experiment [1] (dose 2.00 uM) and 0.006 in experiment [1] (dose 10.00 uM). In addition, the “Dose.FC.LYZ.NS (log2 fold change)” value came to 0.085 in experiment [2] (primary screen, dose 0.08 uM); 0.101 in experiment [2] (primary screen, dose 0.40 uM); 0.011 in experiment [2] (primary screen, dose 2.00 uM); 0.049 in experiment [2] (primary screen, dose 10.00 uM). For the same compound, the “Z.LYZ.NS (standard z score)” value was 0.739 in experiment [2] (primary screen, dose 0.08 uM); 0.881 in experiment [2] (primary screen, dose 0.40 uM); 0.094 in experiment [2] (primary screen, dose 2.00 uM); 0.426 in experiment [2] (primary screen, dose 10.00 uM). The “Dose.FC.CTG (log2 fold change)” value is 0.107 in the experiment with ENR+CD organoids (primary screen, dose 0.08 uM); 0.067 in the experiment on ENR+CD organoids (primary screen, dose 0.40 uM); 0.229 in the experiment on ENR+CD organoids (primary screen, dose 2.00 uM); −0.001 in the experiment with ENR+CD organoids (primary screen, dose 10.00 uM). In addition, the “Z.CTG (standard z score)” value in the experiment on ENR+CD organoids (primary screen, dose 0.08 uM) is recorded as 0.255; in the experiment on ENR+CD organoids (primary screen, dose 0.40 uM) it was 0.159; in the experiment with ENR+CD organoids (primary screen, dose 2.00 uM), 0.546; in the experiment with ENR+CD organoids (primary screen, dose 10.00 uM), −0.002.

As for `O=c1[nH]c2ccc(Cl)cc2c(N[C@@H]2CN3CCC2CC3)c1-c1nc2ccccc2[nH]1` [CHIR-124], the Dose.FC.LYZ.S in experiment [1] (dose 0.08 uM) is on record as −0.267 log2 fold change; in experiment [1] (dose 0.40 uM) it was −0.339 log2 fold change; in experiment [1] (dose 2.00 uM), −0.352 log2 fold change; in experiment [1] (dose 10.00 uM) it was −0.332 log2 fold change. The Dose.FC.LYZ.NS in experiment [2] (primary screen, dose 0.08 uM) is −0.155 log2 fold change; in experiment [2] (primary screen, dose 0.40 uM) it was −0.240 log2 fold change; in experiment [2] (primary screen, dose 2.00 uM) it was −0.220 log2 fold change; in experiment [2] (primary screen, dose 10.00 uM), −0.140 log2 fold change. Further, the Z.LYZ.NS in experiment [2] (setting [11]) was −1.352; in experiment [2] (setting [12]), −2.090; in experiment [2] (setting [13]), −1.916; in experiment [2] (setting [14]) it was −1.223. Besides, the Dose.FC.CTG in the experiment on ENR+CD organoids (primary screen, dose 0.08 uM) is recorded as −0.256 log2 fold change; in the experiment with ENR+CD organoids (primary screen, dose 0.40 uM), −0.853 log2 fold change; in the experiment with ENR+CD organoids (primary screen, dose 2.00 uM), −0.861 log2 fold change; in the experiment with ENR+CD organoids (primary screen, dose 10.00 uM) it was −1.555 log2 fold change. Further, the Z.CTG was −0.612 in the experiment on ENR+CD organoids (setting [11]), −2.038 in the experiment on ENR+CD organoids (setting [12]), −2.057 in the experiment on ENR+CD organoids (setting [13]) and −3.714 with ENR+CD organoids (setting [14]).
